Data: the supplement of paper PMC10627819

Tests used:
[1] = system: S. aureus DSM 20231; experiment: Bliss interaction score (quartile over a dose matrix) (fitness difference); higher = more antagonism (negative = synergy)
Method in brief: (§1)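 The Bliss score was calculated by subtracting the expected fitness, the product of single-drug values, from the observed fitness. OD595 at entry into stationary phase, over the plate's robust no-drug mean and capped at 1, served as the fitness readout. Single-drug values were inferred from combination data, and scores are summarised by quartiles across technical, biological and donor/recipient replicates.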

[2] = system: B. subtilis 168; experiment: as above
Method in brief: as §1

[3] = system: S. pneumoniae D39V; experiment: as above
Method in brief: as §1

[4] = system: S. aureus Newman; experiment: as above
Method in brief: as §1

[5] = system: S. pneumoniae D39V; experiment: fitness (endpoint OD595 vs no drug) (fraction); higher = more growth
Method in brief: (§2)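 Fitness was measured as bacterial growth in 384-well plates inoculated at OD595 0.01 (30 µl, or 55 µl for S. pneumoniae). Media were TSB, LB Lennox or CY, at 37 °C. OD595 was read every 30 min for 14 h and background-subtracted against the first reading. Fitness is OD595 at the transition into stationary phase divided by the robust mean of no-drug control wells, capped at 1.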

[6] = system: S. aureus Newman; experiment: as above
Method in brief: as §2
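For Bliss interaction score (quartile over a dose matrix) in this document: first quartile when negative (synergy) and third quartile when positive (antagonism).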

C/C(=C\C(=O)OCCCCCCCCC(=O)O)C[C@@H]1OC[C@H](C[C@@H]2O[C@H]2[C@@H](C)[C@H](C)O)[C@@H](O)[C@H]1O [Pseudomonic acid] + CN[C@@H]1[C@H](O[C@H]2[C@H](O[C@H]3[C@H](O)[C@@H](O)[C@H](N=C(N)N)[C@@H](O)[C@@H]3N=C(N)N)O[C@@H](C)[C@]2(O)C=O)O[C@@H](CO)[C@H](O)[C@H]1O [Streptomycin]
Details	Bliss interaction score
[1]	-0.013
[2]	0.0523
[3]	-0.178
[4]	-0.0275

fitness, [5]
Details	first compound 0.03 µg/mL	first compound 0.06 µg/mL	first compound 0.12 µg/mL
partner 2 µg/mL	0.897	0.719	0.52
partner 4 µg/mL	0.903	0.708	0.491
partner 8 µg/mL	0.699	0.565	0.384

fitness, one replicate
Details	first compound 0.03 µg/mL	first compound 0.0313 µg/mL	first compound 0.06 µg/mL	first compound 0.0625 µg/mL	first compound 0.12 µg/mL	first compound 0.125 µg/mL
[5], partner 16 µg/mL	0.545	–	0.439	–	0.238	–
[6], partner 2 µg/mL	–	0.0148	–	0.0368	–	0.0312
[6], partner 4 µg/mL	–	0.0183	–	0.0224	–	0.0173
[6], partner 8 µg/mL	–	0.0145	–	0.0198	–	0.0269

C/C(=C\C(=O)OCCCCCCCCC(=O)O)C[C@@H]1OC[C@H](C[C@@H]2O[C@H]2[C@@H](C)[C@H](C)O)[C@@H](O)[C@H]1O [Pseudomonic acid] + CN[C@H](CC(C)C)C(=O)N[C@H]1C(=O)N[C@@H](CC(N)=O)C(=O)N[C@H]2C(=O)N[C@H]3C(=O)N[C@H](C(=O)N[C@H](C(=O)O)c4cc(O)cc(O)c4-c4cc3ccc4O)[C@H](O)c3ccc(c(Cl)c3)Oc3cc2cc(c3O[C@@H]2O[C@H](CO)[C@@H](O)[C@H](O)[C@H]2O[C@H]2C[C@](C)(N)[C@H](O)[C@H](C)O2)Oc2ccc(cc2Cl)[C@H]1O [Vancomycin]
Details	Bliss interaction score
[1]	-0.0086
[2]	0.0278
[3]	0.137
[4]	-0.0276

fitness, [5]
Details	partner 0.03125 µg/mL	partner 0.0625 µg/mL	partner 0.125 µg/mL	partner 0.5 µg/mL
first compound 0.03 µg/mL	0.983	0.973	0.9	–
first compound 0.06 µg/mL	0.873	0.865	–	0.259
first compound 0.12 µg/mL	0.641	0.611	–	0.21

fitness, [6], one replicate
Details	first compound 0.0313 µg/mL	first compound 0.0625 µg/mL	first compound 0.125 µg/mL
partner 0.1875 µg/mL	0.0232	0.0221	0.0473
partner 0.375 µg/mL	0.0206	0.0409	0.0505
partner 0.75 µg/mL	0.0349	0.053	0.0388

C/C(=C\C(=O)OCCCCCCCCC(=O)O)C[C@@H]1OC[C@H](C[C@@H]2O[C@H]2[C@@H](C)[C@H](C)O)[C@@H](O)[C@H]1O [Pseudomonic acid] + COc1ccc(C[C@H](N)C(=O)N[C@H]2[C@@H](O)[C@H](n3cnc4c(N(C)C)ncnc43)O[C@@H]2CO)cc1 [Puromycin]
Details	Bliss interaction score
[1]	0.01
[2]	-0.0341
[3]	-0.209
[4]	0.0128

fitness, [5]
Details	first compound 0.03 µg/mL	first compound 0.06 µg/mL	first compound 0.12 µg/mL
partner 1 µg/mL	0.901	0.774	0.556
partner 2 µg/mL	0.896	0.73	0.428
partner 4 µg/mL	0.735	0.491	0.246

fitness, [6], one replicate
Details	first compound 0.0313 µg/mL	first compound 0.0625 µg/mL	first compound 0.125 µg/mL
partner 0.39 µg/mL	0.0558	0.0476	0.0585
partner 0.78 µg/mL	0.0593	0.043	0.0499
partner 1.56 µg/mL	0.054	0.0656	0.0613

CCCCCCCCCC(=O)N[C@H]1[C@H](Oc2c3cc4cc2Oc2ccc(cc2Cl)[C@@H](O[C@@H]2O[C@H](CO)[C@@H](O)[C@H](O)[C@H]2NC(C)=O)[C@@H]2NC(=O)[C@H](NC(=O)[C@@H]4NC(=O)[C@H]4NC(=O)[C@@H](Cc5ccc(c(Cl)c5)O3)NC(=O)[C@H](N)c3ccc(O)c(c3)Oc3cc(O)cc4c3)c3ccc(O)c(c3)-c3c(O[C@H]4O[C@H](CO)[C@@H](O)[C@H](O)[C@@H]4O)cc(O)cc3[C@@H](C(=O)O)NC2=O)O[C@H](CO)[C@@H](O)[C@@H]1O [Teicoplanin] + CN(C)c1cc(NC(=O)CNC(C)(C)C)c(O)c2c1C[C@H]1C[C@H]3[C@H](N(C)C)C(O)=C(C(N)=O)C(=O)[C@@]3(O)C(O)=C1C2=O [Tigecycline]
main component drawn
Details	Bliss interaction score
[1]	0.108
[2]	0.123
[3]	0.0619
[4]	0.0513

fitness, [6], main component drawn
Details	first compound 0.1562 µg/mL	first compound 0.3125 µg/mL	first compound 0.625 µg/mL
partner 0.039 µg/mL	≥ 1	0.98	≥ 1
partner 0.078 µg/mL	≥ 1	0.963	≥ 1
partner 0.156 µg/mL	≥ 1	≥ 1	≥ 1

fitness, [6], one replicate, main component drawn
Details	first compound 0.62 µg/mL	first compound 1.24 µg/mL	first compound 2.48 µg/mL
partner 0.039 µg/mL	0.757	0.736	0.456
partner 0.078 µg/mL	0.754	0.746	0.453
partner 0.156 µg/mL	0.813	0.756	0.427
